Data from patent US9328093B2, “Selective inhibitors of ubiquitin specific protease 7, the pharmaceutical compositions thereof and their therapeutic applications” (HYBRIGENICS SA, priority 2010, dated 2016).
pIC50: −log10 of the molar value.

Columns and labels:
USP8 = biological target: T1, USP8 (Homo sapiens, UniProt P40818); assay: USP8 assay with GST-Ub52-Flag substrate (HTRF); type: biochemical; conditions: USP8 400 pM
T1 construct: His (from pFastBac-HT vector) (N); made in house; host or cells: Sf9 or High Five insect cells, baculovirus
T1 sequence (P40818 1-1118): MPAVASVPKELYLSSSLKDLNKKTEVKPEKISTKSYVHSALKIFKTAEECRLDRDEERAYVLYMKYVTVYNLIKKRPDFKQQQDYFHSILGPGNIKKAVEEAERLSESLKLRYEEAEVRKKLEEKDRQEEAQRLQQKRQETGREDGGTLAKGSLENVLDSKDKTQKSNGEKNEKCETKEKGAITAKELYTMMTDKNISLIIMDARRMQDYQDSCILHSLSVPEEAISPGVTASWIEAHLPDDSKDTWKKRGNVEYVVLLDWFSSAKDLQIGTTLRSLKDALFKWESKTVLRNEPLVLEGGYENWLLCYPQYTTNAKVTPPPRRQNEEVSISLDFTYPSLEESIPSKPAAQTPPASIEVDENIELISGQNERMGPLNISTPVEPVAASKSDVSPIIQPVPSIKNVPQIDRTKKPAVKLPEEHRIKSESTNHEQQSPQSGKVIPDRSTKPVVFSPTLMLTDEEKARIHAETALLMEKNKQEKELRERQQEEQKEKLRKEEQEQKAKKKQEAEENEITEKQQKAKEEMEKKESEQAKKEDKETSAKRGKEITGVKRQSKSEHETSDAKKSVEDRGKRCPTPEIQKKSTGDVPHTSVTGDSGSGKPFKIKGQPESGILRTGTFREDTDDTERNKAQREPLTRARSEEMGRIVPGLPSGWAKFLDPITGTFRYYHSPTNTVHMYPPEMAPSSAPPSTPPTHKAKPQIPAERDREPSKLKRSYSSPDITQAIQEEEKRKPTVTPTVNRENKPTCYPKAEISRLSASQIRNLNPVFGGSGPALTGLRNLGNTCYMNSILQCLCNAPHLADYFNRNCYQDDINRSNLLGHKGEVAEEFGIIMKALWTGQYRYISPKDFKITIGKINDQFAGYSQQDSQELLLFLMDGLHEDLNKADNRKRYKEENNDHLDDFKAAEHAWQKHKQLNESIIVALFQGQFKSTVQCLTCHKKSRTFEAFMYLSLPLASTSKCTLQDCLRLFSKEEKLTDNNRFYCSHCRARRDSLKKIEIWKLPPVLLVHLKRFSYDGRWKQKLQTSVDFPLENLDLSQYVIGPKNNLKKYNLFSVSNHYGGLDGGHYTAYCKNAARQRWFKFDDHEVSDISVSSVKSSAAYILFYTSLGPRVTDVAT
Method: (§1) For compounds 26 to 38, the in-vitro assays on USP7 and USP8 were carried out according to the following procedure
(§2) The present examples 26 to 38 makes it possible to validate the use of GST-Ub52-Flag in an assay based on the time-resolved measurement of fluorescence emitted by […] in homogenous medium.
(§3) The assay is carried out on multiwell assay plates. The plates are analyzed on a PHERAstar fluorimeter (BMG) after an overnight incubation at 4° C. (excitation 337 nm, emission 620 and 665 nm).
(§4) The reagents used were as follows: • Solution of USP7 at 200 pM and USP8 at 400 pM in 50 mM Tris HCl pH 7.6, Bovine Serum Albumin 0.05%, DTT 5 mM. • Anti-Flag-K (CIS bio international), solution at 0.2 μM in 0.8 M KF, 0.1 Bovine Serum Albumin, Tris HCl 25 mM pH 7.6. • Anti-GST antibody-XL665 conjugate (CIS bio international), solution at 2.6 μM in 0.8 M KF, 0.1% Bovine Serum Albumin, Tris HCl 25 mM pH 7.6. • GST-Ub52-flag solution at 14.75 μM & MBP_Ub52 at 37.7 μM are prepared by dilutions from the stock solution described above in 50 mM Tris HCl pH 7.6, EDTA 0.5 mM, Bovine Serum Albumin 0.05%, DTT 5 mM.
(§5) The enzyme reaction is carried out by mixing GST-Ub52-flag solution with 5 μl of USP7 solution (200 pM final) or 5 μl of USP8 (400 pM final). This mixture is incubated for one hour at room temperature on a multiwell assay plate. A 10 μl mixture of 5 μl of anti-Flag-K solution (0.2 μM) plus 5 μl of anti-GST-XL665 antibody (2.6 μM) is added to each well of the multiwell assay plate. The plate is read after an overnight incubation at 4° C. on a PHERAstar fluorimeter (BMG).
(§6) The decrease in the signal correlates with the increase in enzyme activity i.e. the cleavage of GST-Ub52-Flag substrate. The format used is therefore entirely suitable for a method of assaying an enzyme of the deubiquitinating type such as ubiquitin specific protease, but also for determining a modulator of this enzyme activity.
(§7) The same procedures as mentioned above for assaying the activity of enzymes of the deubiquitinating type are carried out but the various reaction mixtures are incubated with identical enzyme concentration, in the presence or absence of a test compounds 26 to 38. Data (mean values+/− standard deviation) were analyzed as % of control (no compound) and plotted as percentage versus the Log of the compound concentration using GraphPad (Prism).

USP7 = biological target: T2, USP7 (Homo sapiens, UniProt Q93009); assay: USP7 assay with GST-Ub52-Flag substrate (HTRF); type: biochemical; conditions: USP7 200 pM
T2 construct: Full-length wild-type human USP7 and its catalytic mutant (cysteine 223 replaced by alanine, C223A) were produced as N-terminally His-tagged fusions; His (N); made in house; host or cells: Spodoptera frugiperda Sf9 (or High Five) insect cells, baculovirus pFastBac-HT-B
Method: as §1, §2, §3, §4, §5, §6, §7

[1] = tested on: HCT116 colon cancer cells; assay: HCT116 cell viability and proliferation assay (MTS); type: cell-based; conditions: Homo sapiens, HCT-116, 72 h, HCT116, 72 hours, read-out: Cell viability (MTS): HCT116 GI50 Day3
Method: HCT116 colon cancer cells were obtained from ATCC (American Type Culture Collection), and maintained in Mc Coy's 5A medium containing 10% FBS, 3 mM glutamine and 1% penicillin/streptomycin. Cells were incubated at 37° C. in a humidified atmosphere containing 5% CO2.
Cell viability was assayed using the MTS technique in 96-well culture plates (CellTiter 96® Aqueous Non-Radioactive Cell Proliferation Assay, Promega) according to the manufacturer's instructions. MTS (3-(4,5-dimethyl-thiazol-2-yl)-5-(3-carboxy-methoxyphenyl)-2-(4-sulfophenyl)-2H-tetra-zolium) is a MTT-derived tetrazolium that is reduced in metabolically active cells into a soluble, cell-permeant formazan. The amount of formazan, detected by its absorbance at 492 nm is proportional to the number of living, metabolically active cells.
10^3 HCT116 cells were seeded per well. 24 hours later, the medium was changed and the cells treated in triplicate with the concentrations of each compound from 100 μM to 50 nM. The compounds were diluted in 100% DMSO, whose final concentration on cells was kept at 0.5%.
Cells were incubated with the compounds for 72 hours, and their viability then assayed by the addition of MTS for 2 hours. Absorbance at 492 nm was measured directly from the 96-well culture plates. Gl50 (Growth Inhibition 50) concentrations for each compound were calculated using a sigmoidal variable slope fit (Prism 4.0, Graphpad Softwares). Values represent mean of three independent experiments.

pIC50 (USP8) | pIC50 (USP7) | GI50 [1] | SMILES
< 3.70 | 4.43 | 8.2 µM | CCN(CC)CCCC(C)NC(=O)c1ccc2c(Cl)c3c(nc2c1)CCCC3 (centres unmarked) [Example 35, 9-chloro-N-(5-(diethylamino)pentan-2-yl)-5,6,7,8-tetrahydroacridine-3-carboxamide]
 |  | 5.9 µM | O=C(NCCCN1CCCC1)c1ccc2c(Cl)c3c(nc2c1)CCCC3 [Example 8, 9-Chloro-5,6,7,8-tetrahydro-acridine-3-carboxylic acid (3-pyrrolidin-1-yl-propyl)-amide]
 |  | 5 µM | CCN(CC)CCCNC(=O)c1ccc2c(Cl)c3c(nc2c1)CCCC3 [Example 10, 9-Chloro-5,6,7,8-tetrahydro-acridine-3-carboxylic acid (3-diethylamino-propyl)-amide]
< 3.70 | 4.31 | 11 µM | CN(C)CC(C)(C)CNC(=O)c1ccc2c(Cl)c3c(nc2c1)CCCC3 [Example 38, 9-chloro-N-(3-(dimethylamino)-2,2-dimethylpropyl)-5,6,7,8-tetrahydroacridine-3-carboxamide]
 |  | 7.8 µM | CN(C)CCNC(=O)c1ccc2c(Cl)c3c(nc2c1)CCCC3 [Example 11, 9-Chloro-5,6,7,8-tetrahydro-acridine-3-carboxylic acid (2-dimethylamino-ethyl)-amide]
 |  | 5 µM | CCN1CCCC1CNC(=O)c1ccc2c(Cl)c3c(nc2c1)CCCC3 (centres unmarked) [Example 2, 9-Chloro-5,6,7,8-tetrahydro-acridine-3-carboxylic acid (1-ethyl-pyrrolidin-2-ylmethyl)-amide]
 |  | 3.9 µM | CCCN(CCC)CCCNC(=O)c1ccc2c(Cl)c3c(nc2c1)CCCC3 [Example 6, 9-Chloro-5,6,7,8-tetrahydro-acridine-3-carboxylic acid (3-dipropylamino-propyl)-amide]
 |  | 4 µM | CCCCN(CC)CCNC(=O)c1ccc2c(Cl)c3c(nc2c1)CCCC3 [Example 4, 9-Chloro-5,6,7,8-tetrahydro-acridine-3-carboxylic acid [2-(butyl-ethyl-amino)-ethyl]-amide]
 |  | 4.3 µM | CCN(CC)CCNC(=O)c1ccc2c(Cl)c3c(nc2c1)CCCC3 [Example 7, 9-Chloro-5,6,7,8-tetrahydro-acridine-3-carboxylic acid (2-diethylamino-ethyl)-amide]
 |  | 3.5 µM | CCCN(CCC)CCNC(=O)c1ccc2c(Cl)c3c(nc2c1)CCCC3 [Example 3, 9-Chloro-5,6,7,8-tetrahydro-acridine-3-carboxylic acid (2-dipropylamino-ethyl)-amide]

Further lines, the compound ahead of its results:

SMILES | pIC50 (USP8) | pIC50 (USP7) | GI50 [1]
CN1CCC(CN2CCN(C(=O)c3ccc4c(Cl)c5c(nc4c3)CCCC5)CC2)CC1 [Example 29, (9-chloro-5,6,7,8-tetrahydroacridine-3-yl)(4-((1-methylpiperidin-4-yl)methyl)piperazin-1-yl)methanone] | < 3.70 | 5.07 | 7.3 µM
O=C(NCC1CCN(CCCc2ccccc2)CC1)c1ccc2c(Cl)c3c(nc2c1)CCCC3 [Example 33, 9-chloro-N-((1-(3-phenylpropyl)piperidin-4-yl)methyl)-5,6,7,8-tetrahydroacridine-3-carboxamide] | < 3.70 | 4.79 | 2 µM
O=C(NCCCN1CCc2ccccc2C1)c1ccc2c(Cl)c3c(nc2c1)CCCC3 [Example 39, 9-chloro-N-(3-(3,4-dihydroisoquinolin-2(1H)-yl)propyl)-5,6,7,8-tetrahydroacridine-3-carboxamide] | < 3.70 | 4.41 | 7.6 µM
Cc1cccc(CN2CCC(CNC(=O)c3ccc4c(Cl)c5c(nc4c3)CCCC5)CC2)c1 [Example 1, 9-Chloro-5,6,7,8-tetrahydro-acridine-3-carboxylic acid [1-(3-methyl-benzyl)-piperidin-4-ylmethyl]-amide] |  |  | 2 µM
CCN1CCC[C@H]1CNC(=O)c1ccc2c(Cl)c3c(nc2c1)CCCC3 [Example 37, (S)-9-chloro-N-((1-ethylpyrrolidin-2-yl)methyl)-5,6,7,8-tetrahydroacridine-3-carboxamide] | < 3.70 | 4.59 | 8.7 µM
O=C(c1ccc2c(Cl)c3c(nc2c1)CCCC3)N1CCCCCC1 [Example 12, Azepan-1-yl-(9-chloro-5,6,7,8-tetrahydro-acridin-3-yl)-methanone] |  |  | 20 µM
O=C(c1ccc2c(Cl)c3c(nc2c1)CCCC3)N1CCC(N2CCCCC2)CC1 [Example 16, [1,4′]Bipiperidinyl-1′-yl-(9-chloro-5,6,7,8-tetrahydro-acridin-3-yl)-methanone] |  |  | 13.5 µM
CCCN1CCN(CCCNC(=O)c2ccc3c(Cl)c4c(nc3c2)CCCC4)CC1 [Example 13, 9-Chloro-5,6,7,8-tetrahydro-acridine-3-carboxylic acid [3-(4-propyl-piperazin-1-yl)-propyl]-amide] |  |  | 5.9 µM
CC1CCCC(C)N1CCCNC(=O)c1ccc2c(Cl)c3c(nc2c1)CCCC3 (centres unmarked) [Example 9, 9-Chloro-5,6,7,8-tetrahydro-acridine-3-carboxylic acid [3-(2,6-dimethyl-piperidin-1-yl)-propyl]-amide] |  |  | 3.6 µM
CN1CCN(CCCNC(=O)c2ccc3c(Cl)c4c(nc3c2)CCCC4)CC1 [Example 15, 9-Chloro-5,6,7,8-tetrahydro-acridine-3-carboxylic acid [3-(4-methyl-piperazin-1-yl)-propyl]-amide] |  |  | 7.4 µM
